Laboratory results: PubChem BioAssay AID248 (DTP/NCI, 2004)
“And” between values parts separate entries of the source, which are not always exact repeats. Identical values can stand only once. Toxic doses and inconclusive results are not listed. Rule as the data show it: active = T/C of 150% or more; inactive = T/C below 125%.

Tested on: L1210 leukemia ip in BDF1 mice, survival T/C
Test: NCI In Vivo Anticancer Drug Screen. Data for tumor model L1210 Leukemia (intraperitoneal) in B6D2F1 (BDF1) mice
Conditions: endpoint: mean survival time, higher = longer survival
Procedure, shortened: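 Read-out is survival time, reported as the treated-group measurement over the vehicle-control measurement.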

[1] = dose: 12.5 mg/kg/injection, schedule: Q04DX003 (ip), vehicle: saline with Tween-80
[2] = dose: 100.0 mg/kg/injection, schedule: Q01DX009 (ip), vehicle: Klucel (hydroxypropylcellulose) (HPC)
[3] = dose: 200.0 mg/kg/injection, schedule: Q01DX009 (ip), vehicle: Klucel (hydroxypropylcellulose) (HPC)
[4] = dose: 100.0 mg/kg/injection, schedule: Q01DX009 (ip), vehicle: saline with Tween-80
[5] = dose: 200.0 mg/kg/injection, schedule: Q01DX009 (ip), vehicle: saline with Tween-80
[6] = dose: 100.0 mg/kg/injection, schedule: Q04DX002 (ip), vehicle: Klucel (hydroxypropylcellulose) (HPC)
[7] = dose: 200.0 mg/kg/injection, schedule: Q04DX002 (ip), vehicle: Klucel (hydroxypropylcellulose) (HPC)
[8] = dose: 400.0 mg/kg/injection, schedule: Q04DX002 (ip), vehicle: Klucel (hydroxypropylcellulose) (HPC)
[9] = dose: 100.0 mg/kg/injection, schedule: Q04DX003 (ip), vehicle: saline with Tween-80
[10] = dose: 400.0 mg/kg/injection, schedule: Q01DX009 (ip), vehicle: saline with Tween-80

Measured: T/C

CC1=CC(C)(N=[N+]=[N-])CC(C)(C)C1 (stereo not drawn)
inactive: dose: 37.5 mg/kg/injection, schedule: Q04DX003 (ip), vehicle: saline 107 % of control | dose: 75.0 mg/kg/injection, schedule: Q01DX001 (ip), vehicle: saline 98 % of control | dose: 75.0 mg/kg/injection, schedule: Q04DX003 (ip), vehicle: saline 100 % of control | dose: 150.0 mg/kg/injection, schedule: Q01DX001 (ip), vehicle: saline 92 % of control | dose: 150.0 mg/kg/injection, schedule: Q04DX003 (ip), vehicle: saline 103 % of control

c1ccc2c(c1)O[As](O[As]1Oc3ccccc3O1)O2
inactive: dose: 1.56 mg/kg/injection, schedule: Q04DX003 (ip), vehicle: saline 104 % of control | dose: 3.12 mg/kg/injection, schedule: Q01DX009 (ip), vehicle: saline with Tween-80 108 % of control | dose: 3.12 mg/kg/injection, schedule: Q04DX003 (ip), vehicle: saline 106 % of control | dose: 6.25 mg/kg/injection, schedule: Q01DX009 (ip), vehicle: saline with Tween-80 116 % of control | dose: 6.25 mg/kg/injection, schedule: Q04DX003 (ip), vehicle: saline 115 % of control | dose: 12.5 mg/kg/injection, schedule: Q01DX009 (ip), vehicle: saline with Tween-80 122 % of control | [1] 96 % of control

COc1ccccc1N=Nc1c(O)n(-c2ccccc2C)c(=S)n(-c2ccc(C)cc2)c1=O
inactive: dose: 100.0 mg/kg/injection, schedule: Q01DX001 (ip), vehicle: Klucel (hydroxypropylcellulose) (HPC) 101 % of control | dose: 200.0 mg/kg/injection, schedule: Q01DX001 (ip), vehicle: Klucel (hydroxypropylcellulose) (HPC) 93 % of control

O=C(O)CCCC[P+](c1ccccc1)(c1ccccc1)c1ccccc1
inactive: dose: 100.0 mg/kg/injection, schedule: Q01DX009 (ip), vehicle: saline 98 % of control | dose: 100.0 mg/kg/injection, schedule: Q04DX003 (ip), vehicle: saline 105 % of control | dose: 200.0 mg/kg/injection, schedule: Q01DX009 (ip), vehicle: saline 100 % of control | dose: 200.0 mg/kg/injection, schedule: Q04DX003 (ip), vehicle: saline 107 % of control | dose: 400.0 mg/kg/injection, schedule: Q04DX003 (ip), vehicle: saline 102 % of control

Clc1ccc(OCc2sc3ccc(Br)cc3c2CN2CCc3ccccc3C2)cc1
inactive: dose: 75.0 mg/kg/injection, schedule: Q01DX009 (ip), vehicle: Klucel (hydroxypropylcellulose) (HPC) 101 % of control | dose: 100.0 mg/kg/injection, schedule: Q04DX003 (ip), vehicle: Klucel (hydroxypropylcellulose) (HPC) 94 % of control | dose: 150.0 mg/kg/injection, schedule: Q01DX009 (ip), vehicle: Klucel (hydroxypropylcellulose) (HPC) 94 % of control | dose: 200.0 mg/kg/injection, schedule: Q04DX003 (ip), vehicle: Klucel (hydroxypropylcellulose) (HPC) 98 % of control | dose: 300.0 mg/kg/injection, schedule: Q01DX009 (ip), vehicle: Klucel (hydroxypropylcellulose) (HPC) 97 % of control | dose: 400.0 mg/kg/injection, schedule: Q04DX003 (ip), vehicle: Klucel (hydroxypropylcellulose) (HPC) 94 % of control

CCCCCCCCc1nc2c([nH]1)c(=O)n(C)c(=O)n2C
inactive: dose: 50.0 mg/kg/injection, schedule: Q01DX001 (ip), vehicle: saline 87 % of control | dose: 100.0 mg/kg/injection, schedule: Q01DX001 (ip), vehicle: saline 90 % of control | dose: 200.0 mg/kg/injection, schedule: Q01DX001 (ip), vehicle: saline 90 % of control | dose: 400.0 mg/kg/injection, schedule: Q01DX001 (ip), vehicle: saline 102 % of control

NCCSCCN
inactive: [2] 104 % of control | [3] 100 % of control

O=C(CC1(O)C(=O)Nc2ccccc21)C12CC3CC(CC(C3)C1)C2 (stereo not drawn)
inactive: dose: 50.0 mg/kg/injection, schedule: Q01DX009 (ip), vehicle: saline with Tween-80 104 % of control | [4] 101 % of control | [5] 96 % of control

COc1ccc(CCCCO)cc1
inactive: dose: 100.0 mg/kg/injection, schedule: Q01DX001 (ip), vehicle: acetone 96 % of control | dose: 200.0 mg/kg/injection, schedule: Q01DX001 (ip), vehicle: acetone 102 % of control | dose: 400.0 mg/kg/injection, schedule: Q01DX001 (ip), vehicle: acetone 86 % of control

CCCCCCCCC(SC#N)C(CCCCCCCC(=O)O)SC#N (stereo not drawn)
inactive: [6] 100 % of control | [7] 95 % of control | [8] 106 % of control

c1ccc2c(c1)OCC(CNC1CCCCC1)O2 (stereo not drawn)
inactive: [1] 100 % of control | dose: 25.0 mg/kg/injection, schedule: Q04DX003 (ip), vehicle: saline with Tween-80 94 % of control and 100 % of control | dose: 50.0 mg/kg/injection, schedule: Q04DX003 (ip), vehicle: saline with Tween-80 94 % of control | [9] 98 % of control and 100 % of control

C=C1C(=O)O[C@H]2C1[C@H](OC(=O)/C(C)=C\COC(C)=O)C[C@]1(CO1)[C@@H]1[C@H](O)[C@H]3O[C@@]3(C)[C@@H]12 (stereo partly drawn)
inactive: dose: 25.0 mg/kg/injection, schedule: Q04DX002 (ip), vehicle: other 105 % of control | dose: 50.0 mg/kg/injection, schedule: Q04DX002 (ip), vehicle: other 103 % of control | dose: 100.0 mg/kg/injection, schedule: Q04DX002 (ip), vehicle: other 97 % of control and 100 % of control

CC(C)(C)c1cc(/C=N/NC(=S)Nc2ccccc2)cc(C(C)(C)C)c1O
inactive: [6] 96 % of control | [7] 89 % of control | [8] 92 % of control

CCCCN(Cl)CCCC
inactive: dose: 100.0 mg/kg/injection, schedule: Q04DX002 (ip), vehicle: saline + alcohol 101 % of control

c1cc2cccc3c2c(c1)c1sc2c4cccc5cccc(c54)c2c31
inactive: [4] 100 % of control | [9] 101 % of control | [5] 92 % of control | dose: 200.0 mg/kg/injection, schedule: Q04DX003 (ip), vehicle: saline with Tween-80 90 % of control | [10] 89 % of control | dose: 400.0 mg/kg/injection, schedule: Q04DX003 (ip), vehicle: saline with Tween-80 94 % of control

O=C(O)C(=C(c1ccccc1)c1ccccc1)c1cccc2ccccc12
inactive: dose: 50.0 mg/kg/injection, schedule: Q04DX002 (ip), vehicle: Klucel (hydroxypropylcellulose) (HPC) 98 % of control | [2] 101 % of control | [6] 100 % of control | [7] 100 % of control

COc1ccc(O)c(C(=O)c2cccc(OC)c2C#N)c1
inactive: dose: 25.0 mg/kg/injection, schedule: Q04DX003 (ip), vehicle: carboxymethylcellulose (CMC) 104 % of control | dose: 50.0 mg/kg/injection, schedule: Q01DX001 (ip), vehicle: carboxymethylcellulose (CMC) 103 % of control | dose: 50.0 mg/kg/injection, schedule: Q04DX003 (ip), vehicle: carboxymethylcellulose (CMC) 116 % of control | dose: 100.0 mg/kg/injection, schedule: Q01DX001 (ip), vehicle: carboxymethylcellulose (CMC) 97 % of control | dose: 100.0 mg/kg/injection, schedule: Q01DX009 (ip), vehicle: carboxymethylcellulose (CMC) 99 % of control and 100 % of control | dose: 100.0 mg/kg/injection, schedule: Q04DX002 (ip), vehicle: carboxymethylcellulose (CMC) 100 % of control and 91 % of control | dose: 100.0 mg/kg/injection, schedule: Q04DX003 (ip), vehicle: carboxymethylcellulose (CMC) 107 % of control and 86 % of control | dose: 200.0 mg/kg/injection, schedule: Q01DX001 (ip), vehicle: carboxymethylcellulose (CMC) 99 % of control | dose: 200.0 mg/kg/injection, schedule: Q01DX009 (ip), vehicle: carboxymethylcellulose (CMC) 97 % of control and 87 % of control | dose: 200.0 mg/kg/injection, schedule: Q04DX002 (ip), vehicle: carboxymethylcellulose (CMC) 104 % of control and 108 % of control | dose: 400.0 mg/kg/injection, schedule: Q01DX001 (ip), vehicle: carboxymethylcellulose (CMC) 99 % of control | dose: 400.0 mg/kg/injection, schedule: Q01DX009 (ip), vehicle: carboxymethylcellulose (CMC) 110 % of control and 86 % of control | dose: 400.0 mg/kg/injection, schedule: Q04DX002 (ip), vehicle: carboxymethylcellulose (CMC) 97 % of control and 90 % of control

COc1ccc(C)cc1NC(=O)Nc1cccc(F)c1
inactive: [2] 106 % of control | [3] 111 % of control | dose: 400.0 mg/kg/injection, schedule: Q01DX009 (ip), vehicle: Klucel (hydroxypropylcellulose) (HPC) 106 % of control

COC(=O)C1(C)CCCC2(C)C1CCC13C=C(C(C)C)C(CC1C(=O)O)CC23 (stereo not drawn)
inactive: [4] 95 % of control | [5] 93 % of control | [10] 87 % of control

O=C(c1ccc(O)cc1)c1ccc(O)cc1O
inactive: dose: 100.0 mg/kg/injection, schedule: Q01DX009 (ip), vehicle: saline sonified 93 % of control | dose: 200.0 mg/kg/injection, schedule: Q01DX009 (ip), vehicle: saline sonified 98 % of control | dose: 400.0 mg/kg/injection, schedule: Q01DX009 (ip), vehicle: saline sonified 98 % of control
